Source: patent US6355799B1, “Substituted benzene compounds, process for their preparation, and herbicidal and defoliant compositions containing them” (ISK Americas Incorporated, priority 1997, dated 2002)

Assays:
Assay type in all cases: in vivo
[1] = system: redroot pigweed (Amaranthus retroflexus, AMARE); test: Pre-emerge test, greenhouse herbicide activity screening; conditions: pre-emerge, 14 days after application, scale 0-100
Summary of the method: (§1)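 Compounds in acetone were track-sprayed at 187 l/ha, 15–1000 g ai/ha, onto sandy loam pots. Pre-emerge seeds were sown one day before spraying, with surface watering afterwards. Post-emerge plants were at the 2–3 leaf stage and sprayed with 0.25% v/v non-ionic surfactant. Injury was rated 0–100 at 14 days.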

[2] = system: barnyardgrass (Echinochloa crus-galli, ECHCG); test: as above; conditions: pre-emerge, 14 days after application, scale 0-100
Summary of the method: (§2)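 Herbicidal damage is scored 0 (none) to 100 (complete plant death) two weeks after a simulated field spray. Rates span 15–1000 g ai/ha, delivered in acetone at 187 l/ha. For post-emergence treatments, plants have 2–3 leaves and the spray carries 0.25% v/v non-ionic surfactant.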

[3] = system: green foxtail (Setaria viridis, SETVI); test: as above; conditions: pre-emerge, 14 days after application, scale 0-100
Summary of the method: as §2

[4] = system: ivyleaf morningglory (Ipomoea hederacea, IPOHE); test: as above; conditions: pre-emerge, 14 days after application, scale 0-100
Summary of the method: as §2

[5] = system: lambsquarters (Chenopodium album, CHEAL); test: as above; conditions: pre-emerge, 14 days after application, scale 0-100
Summary of the method: as §2

[6] = system: large crabgrass (Digitaria sanguinalis, DIGSA); test: as above; conditions: pre-emerge, 14 days after application, scale 0-100
Summary of the method: as §2

[7] = system: sicklepod (Cassia obtusifolia, CASOB); test: as above; conditions: pre-emerge, 14 days after application, scale 0-100
Summary of the method: as §2

[8] = system: velvetleaf (Abutilon theophrasti, ABUTH); test: as above; conditions: pre-emerge, 14 days after application, scale 0-100
Summary of the method: as §2

[9] = system: field corn (Zea mays L., var. Dekalb 535, CORN); test: Pre-emerge test, crop safety; conditions: pre-emerge, 14 days after application, scale 0-100
Summary of the method: as §1

[10] = system: upland rice (Oryza sp., var. Tebonnet, RICE); test: Pre-emerge test, crop safety; conditions: pre-emerge, 14 days after application, scale 0-100
Summary of the method: as §1

[11] = system: barnyardgrass (Echinochloa crus-galli, ECHCG); test: Post-emerge test, greenhouse herbicide activity screening; conditions: post-emerge, 14 days after application, rating scale 0-100
Summary of the method: (§3)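 Compounds in acetone were track-sprayed at 15-1000 g ai/ha (187 l/ha) on sandy loam pots: pre-emerge one day after seeding, post-emerge at 2-3 leaf stage with 0.25% v/v non-ionic surfactant. Phytotoxicity was rated 14 days later on a 0 (no damage) to 100 (complete death) scale.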

[12] = system: green foxtail (Setaria viridis, SETVI); test: as above; conditions: post-emerge, 14 days after application, rating scale 0-100
Summary of the method: as §3

[13] = system: ivyleaf morningglory (Ipomoea hederacea, IPOHE); test: as above; conditions: post-emerge, 14 days after application, rating scale 0-100
Summary of the method: as §3

[14] = system: lambsquarters (Chenopodium album, CHEAL); test: as above; conditions: post-emerge, 14 days after application, rating scale 0-100
Summary of the method: as §3

[15] = system: large crabgrass (Digitaria sanguinalis, DIGSA); test: as above; conditions: post-emerge, 14 days after application, rating scale 0-100
Summary of the method: as §3

[16] = system: redroot pigweed (Amaranthus retroflexus, AMARE); test: as above; conditions: post-emerge, 14 days after application, rating scale 0-100
Summary of the method: as §3

[17] = system: sicklepod (Cassia obtusifolia, CASOB); test: as above; conditions: post-emerge, 14 days after application, rating scale 0-100
Summary of the method: as §3

[18] = system: velvetleaf (Abutilon theophrasti, ABUTH); test: as above; conditions: post-emerge, 14 days after application, rating scale 0-100
Summary of the method: as §3

[19] = system: field corn (Zea mays L., var. Dekalb 535, CORN); test: Post-emerge test, crop safety; conditions: post-emerge, 14 days after application, rating scale 0-100
Summary of the method: as §2

[20] = system: upland rice (Oryza sp., var. Tebonnet, RICE); test: Post-emerge test, crop safety; conditions: post-emerge, 63 g ai/ha, 14 days after application, rating scale 0-100
Summary of the method: as §2

**Q.** How did the “phytotoxicity rating AMARE” value ([1]; 63 g ai/ha) turn out when C=Cc1ccc(C(=O)Nc2c(OC)c(Br)cc(F)c2-n2c(=O)cc(C(F)(F)F)n(C)c2=O)cc1 [2-182] was run?
**A.** 90

**Q.** And the “phytotoxicity rating AMARE” value ([1]; 250 g ai/ha)?
**A.** 100

**Q.** And the “phytotoxicity rating ECHCG” value ([2]; 63 g ai/ha)?
**A.** 10

**Q.** What about the “phytotoxicity rating ECHCG” value ([2]; 250 g ai/ha) of the same compound?
**A.** 60

**Q.** What about the “phytotoxicity rating SETVI” value ([3]; 63 g ai/ha) of the same compound?
**A.** 30

**Q.** What about the “phytotoxicity rating SETVI” value ([3]; 250 g ai/ha) of the same compound?
**A.** 90

**Q.** What about the “phytotoxicity rating IPOHE” value ([4]; 63 g ai/ha) of the same compound?
**A.** 0

**Q.** And the “phytotoxicity rating IPOHE” value ([4]; 250 g ai/ha)?
**A.** 100

**Q.** What about the “phytotoxicity rating CHEAL” value ([5]; 63 g ai/ha) of the same compound?
**A.** 100

**Q.** What about the “phytotoxicity rating CHEAL” value ([5]; 250 g ai/ha) of the same compound?
**A.** 100

**Q.** What about the “phytotoxicity rating DIGSA” value ([6]; 63 g ai/ha) of the same compound?
**A.** 30

**Q.** And the “phytotoxicity rating DIGSA” value ([6]; 250 g ai/ha)?
**A.** 90

**Q.** And the “phytotoxicity rating CASOB” value ([7]; 63 g ai/ha)?
**A.** 10

**Q.** What about the “phytotoxicity rating CASOB” value ([7]; 250 g ai/ha) of the same compound?
**A.** 60

**Q.** What about the “phytotoxicity rating ABUTH” value ([8]; 63 g ai/ha) of the same compound?
**A.** 100

**Q.** And the “phytotoxicity rating ABUTH” value ([8]; 250 g ai/ha)?
**A.** 100

**Q.** And the “phytotoxicity rating CORN (crop damage)” value ([9]; 63 g ai/ha)?
**A.** 0

**Q.** What about the “phytotoxicity rating CORN (crop damage)” value ([9]; 250 g ai/ha) of the same compound?
**A.** 10

**Q.** What about the “phytotoxicity rating RICE (crop damage)” value ([10]; 63 g ai/ha) of the same compound?
**A.** 15

**Q.** And the “phytotoxicity rating RICE (crop damage)” value ([10]; 250 g ai/ha)?
**A.** 70

**Q.** What about the ECHCG phytotoxicity rating ([11]; 63 g ai/ha) of the same compound?
**A.** 0

**Q.** And the ECHCG phytotoxicity rating ([11]; 250 g ai/ha)?
**A.** 30

**Q.** What about the SETVI phytotoxicity rating ([12]; 63 g ai/ha) of the same compound?
**A.** 10

**Q.** And the SETVI phytotoxicity rating ([12]; 250 g ai/ha)?
**A.** 80

**Q.** What about the IPOHE phytotoxicity rating ([13]; 63 g ai/ha) of the same compound?
**A.** 100

**Q.** And the IPOHE phytotoxicity rating ([13]; 250 g ai/ha)?
**A.** 100

**Q.** What about the CHEAL phytotoxicity rating ([14]; 63 g ai/ha) of the same compound?
**A.** 95

**Q.** What about the CHEAL phytotoxicity rating ([14]; 250 g ai/ha) of the same compound?
**A.** 100

**Q.** And the DIGSA phytotoxicity rating ([15]; 63 g ai/ha)?
**A.** 0

**Q.** And the DIGSA phytotoxicity rating ([15]; 250 g ai/ha)?
**A.** 20

**Q.** What about the AMARE phytotoxicity rating ([16]; 63 g ai/ha) of the same compound?
**A.** 90

**Q.** What about the AMARE phytotoxicity rating ([16]; 250 g ai/ha) of the same compound?
**A.** 95

**Q.** And the CASOB phytotoxicity rating ([17]; 63 g ai/ha)?
**A.** 60

**Q.** And the CASOB phytotoxicity rating ([17]; 250 g ai/ha)?
**A.** 95

**Q.** And the ABUTH phytotoxicity rating ([18]; 63 g ai/ha)?
**A.** 100

**Q.** And the ABUTH phytotoxicity rating ([18]; 250 g ai/ha)?
**A.** 100

**Q.** What about the “CORN phytotoxicity rating (crop damage)” value ([19]; 63 g ai/ha) of the same compound?
**A.** 5

**Q.** What about the “CORN phytotoxicity rating (crop damage)” value ([19]; 250 g ai/ha) of the same compound?
**A.** 70

**Q.** What about the “RICE phytotoxicity rating (crop damage)” value [20] of the same compound?
**A.** 0
